According to the NIST ThermoML archive (doi:10.1021/acs.jced.5b00331):
Numbers after ± are expanded uncertainties. Values belong to the compound of their own block, whether it stands above or below them.

How the values were obtained:
[1] = xn = mol fraction of the nth substance listed; settings: 101 kPa, Liquid; for mass density: Vibrating tube method; for excess molar volume: Direct dilatometry
[2] = 313.15 K; 101.33 kPa; Liquid; Vibrating tube method

SMILES: C1CCCCC1 [cyclohexane]
mass density [2]: 759.8 ± 0.2 kg/m3

SMILES: C1CCCCCC1 [cycloheptane] + C1CCCC1
mass density ([1]; 313.15 K, x2 = 0.4999): 762.9 ± 0.2 kg/m3

SMILES: CCCCCCCCCCCCCCCCCCCCCC [docosane] + CCCCCCCCCC
mass density ([1]; 313.15 K, x2 = 0.5001): 758.9 ± 0.2 kg/m3

SMILES: CCCCCCCCCCCCCCCC [hexadecane]
mass density [2]: 762.9 ± 0.3 kg/m3

The remaining lines, values ahead:

mass density ([1]; 313.15 K, x2 = 0.5001): 758.4 ± 0.2 kg/m3
SMILES: CCCCCCCCCCCCCCCCCC [octadecane] + CCCCCCCCCCCCCC

mass density ([1]; 313.15 K, x2 = 0.5): 758.8 ± 0.3 kg/m3
mass density ([1]; 315.65 K, x2 = 0.5): 757.1 ± 0.3 kg/m3
SMILES: CCCCCCCCCCCCCCCCCCCCCCCC [tetracosane] + CCCCCCCC

excess molar volume ([1]; 313.15 K, x2 = 0.0083): 1.32e-08 ± 2.8e-09 m3/mol
excess molar volume ([1]; 313.15 K, x2 = 0.03441): 5.31e-08 ± 2.9e-09 m3/mol
excess molar volume ([1]; 313.15 K, x2 = 0.0839): 1.341e-07 ± 3.1e-09 m3/mol
excess molar volume ([1]; 313.15 K, x2 = 0.1372): 2.074e-07 ± 3.8e-09 m3/mol
excess molar volume ([1]; 313.15 K, x2 = 0.2221): 3.185e-07 ± 5.1e-09 m3/mol
excess molar volume ([1]; 313.15 K, x2 = 0.3029): 4.088e-07 ± 6.6e-09 m3/mol
excess molar volume ([1]; 313.15 K, x2 = 0.3641): 4.671e-07 ± 7.7e-09 m3/mol
excess molar volume ([1]; 313.15 K, x2 = 0.4199): 5.136e-07 ± 8.8e-09 m3/mol
excess molar volume ([1]; 313.15 K, x2 = 0.4911): 5.593e-07 ± 1e-08 m3/mol
excess molar volume ([1]; 313.15 K, x2 = 0.5316): 5.779e-07 ± 9.7e-09 m3/mol
excess molar volume ([1]; 313.15 K, x2 = 0.5632): 5.878e-07 ± 9.2e-09 m3/mol
excess molar volume ([1]; 313.15 K, x2 = 0.59): 5.938e-07 ± 8.6e-09 m3/mol
excess molar volume ([1]; 313.15 K, x2 = 0.6216): 5.968e-07 ± 8e-09 m3/mol
excess molar volume ([1]; 313.15 K, x2 = 0.6527): 5.956e-07 ± 7.4e-09 m3/mol
excess molar volume ([1]; 313.15 K, x2 = 0.6834): 5.888e-07 ± 6.9e-09 m3/mol
excess molar volume ([1]; 313.15 K, x2 = 0.7073): 5.731e-07 ± 6.3e-09 m3/mol
excess molar volume ([1]; 313.15 K, x2 = 0.7163): 5.728e-07 ± 6.1e-09 m3/mol
excess molar volume ([1]; 313.15 K, x2 = 0.7223): 5.731e-07 ± 6.1e-09 m3/mol
excess molar volume ([1]; 313.15 K, x2 = 0.7489): 5.558e-07 ± 6.1e-09 m3/mol
excess molar volume ([1]; 313.15 K, x2 = 0.7508): 5.513e-07 ± 6.1e-09 m3/mol
excess molar volume ([1]; 313.15 K, x2 = 0.7749): 5.318e-07 ± 5.3e-09 m3/mol
excess molar volume ([1]; 313.15 K, x2 = 0.8022): 5.039e-07 ± 4.8e-09 m3/mol
excess molar volume ([1]; 313.15 K, x2 = 0.8303): 4.675e-07 ± 4.5e-09 m3/mol
excess molar volume ([1]; 313.15 K, x2 = 0.8736): 3.939e-07 ± 4e-09 m3/mol
excess molar volume ([1]; 313.15 K, x2 = 0.8928): 3.535e-07 ± 3.9e-09 m3/mol
excess molar volume ([1]; 313.15 K, x2 = 0.9106): 3.105e-07 ± 3.9e-09 m3/mol
excess molar volume ([1]; 313.15 K, x2 = 0.9242): 2.747e-07 ± 4e-09 m3/mol
excess molar volume ([1]; 313.15 K, x2 = 0.9453): 2.13e-07 ± 4e-09 m3/mol
excess molar volume ([1]; 313.15 K, x2 = 0.9634): 1.518e-07 ± 4.4e-09 m3/mol
excess molar volume ([1]; 313.15 K, x2 = 0.9801): 8.6e-08 ± 4.7e-09 m3/mol
excess molar volume ([1]; 313.15 K, x2 = 0.988): 5.32e-08 ± 4.9e-09 m3/mol
excess molar volume ([1]; 313.15 K, x2 = 0.9948): 2.3e-08 ± 5e-09 m3/mol
SMILES: CCCCCCCCCCCCCCCC [hexadecane] + C1CCCCC1
